In data set [1] the target is T1, Protein cereblon/Cyclin-dependent kinase 12 (Homo sapiens) (UniProt Q9NYV4+Q96SW2). Kind of data set: PROTAC activity at CRBN/CDK12 in human Jurkat cells assessed as induction of CDK12 degradation at 100 nM incubated for 6 hrs by western blot analysis. The format is cell-based.
Data set [2] deals with T1, Protein cereblon/Cyclin-dependent kinase 12 (Homo sapiens). Description: PROTAC activity at CRBN/CDK12 in human Jurkat cells assessed as induction of CDK12 degradation up to 500 nM incubated for 6 hrs by western blot analysis. Particulars: dose nM <=500, time 6.0 hrs. In kind it is cell-based.
Data set [3] is described as follows: Cmax in C57BL/6 mouse at 2 mg/kg, iv measured up to 8 hrs post-dosing. On the set-up: route intravenous, dose 2 mg/kg, time <=8. Particulars: in vivo. The format is ADME, organism-based.
Data set [4] can be described thus: AUC(infinity) in C57BL/6 mouse at 2 mg/kg, iv measured up to 8 hrs post-dosing. The format is ADME, organism-based. Also on record: route intravenous, dose 2 mg/kg, time <=8. The following applies: in vivo.
Data set [5] is described as follows: Half life in C57BL/6 mouse at 2 mg/kg, iv measured up to 8 hrs post-dosing. In kind it is ADME, organism-based. Particulars: in vivo.
A short description of data set [6]: AUC (extrapolated) in C57BL/6 mouse at 2 mg/kg, iv measured up to 8 hrs post-dosing. In kind it is ADME, organism-based. The following applies: in vivo.
Data set [7] can be described thus: AUClast in C57BL/6 mouse at 2 mg/kg, iv measured up to 8 hrs post-dosing. In kind it is ADME, organism-based. Also on record: route intravenous, dose 2 mg/kg, time <=8. Particulars: in vivo.

“And” between values parts separate entries of the source, which are not always exact repeats. Identical values can stand only once. The source made the active and inactive calls. The rule behind the calls is not given here.

T1 sequence (Q96SW2 whole entry, looked up): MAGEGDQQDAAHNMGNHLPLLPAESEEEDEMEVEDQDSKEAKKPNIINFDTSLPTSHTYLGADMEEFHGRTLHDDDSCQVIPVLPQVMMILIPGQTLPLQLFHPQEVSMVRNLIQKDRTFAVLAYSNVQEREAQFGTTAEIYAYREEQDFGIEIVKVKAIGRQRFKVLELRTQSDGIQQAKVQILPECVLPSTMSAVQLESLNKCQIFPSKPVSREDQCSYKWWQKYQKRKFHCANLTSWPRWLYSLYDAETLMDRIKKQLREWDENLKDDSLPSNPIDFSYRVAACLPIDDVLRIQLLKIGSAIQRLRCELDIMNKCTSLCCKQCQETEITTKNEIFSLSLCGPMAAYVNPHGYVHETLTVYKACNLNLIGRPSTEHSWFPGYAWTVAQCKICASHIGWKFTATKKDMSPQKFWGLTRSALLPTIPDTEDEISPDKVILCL
T1 sequence (Q9NYV4 whole entry, looked up): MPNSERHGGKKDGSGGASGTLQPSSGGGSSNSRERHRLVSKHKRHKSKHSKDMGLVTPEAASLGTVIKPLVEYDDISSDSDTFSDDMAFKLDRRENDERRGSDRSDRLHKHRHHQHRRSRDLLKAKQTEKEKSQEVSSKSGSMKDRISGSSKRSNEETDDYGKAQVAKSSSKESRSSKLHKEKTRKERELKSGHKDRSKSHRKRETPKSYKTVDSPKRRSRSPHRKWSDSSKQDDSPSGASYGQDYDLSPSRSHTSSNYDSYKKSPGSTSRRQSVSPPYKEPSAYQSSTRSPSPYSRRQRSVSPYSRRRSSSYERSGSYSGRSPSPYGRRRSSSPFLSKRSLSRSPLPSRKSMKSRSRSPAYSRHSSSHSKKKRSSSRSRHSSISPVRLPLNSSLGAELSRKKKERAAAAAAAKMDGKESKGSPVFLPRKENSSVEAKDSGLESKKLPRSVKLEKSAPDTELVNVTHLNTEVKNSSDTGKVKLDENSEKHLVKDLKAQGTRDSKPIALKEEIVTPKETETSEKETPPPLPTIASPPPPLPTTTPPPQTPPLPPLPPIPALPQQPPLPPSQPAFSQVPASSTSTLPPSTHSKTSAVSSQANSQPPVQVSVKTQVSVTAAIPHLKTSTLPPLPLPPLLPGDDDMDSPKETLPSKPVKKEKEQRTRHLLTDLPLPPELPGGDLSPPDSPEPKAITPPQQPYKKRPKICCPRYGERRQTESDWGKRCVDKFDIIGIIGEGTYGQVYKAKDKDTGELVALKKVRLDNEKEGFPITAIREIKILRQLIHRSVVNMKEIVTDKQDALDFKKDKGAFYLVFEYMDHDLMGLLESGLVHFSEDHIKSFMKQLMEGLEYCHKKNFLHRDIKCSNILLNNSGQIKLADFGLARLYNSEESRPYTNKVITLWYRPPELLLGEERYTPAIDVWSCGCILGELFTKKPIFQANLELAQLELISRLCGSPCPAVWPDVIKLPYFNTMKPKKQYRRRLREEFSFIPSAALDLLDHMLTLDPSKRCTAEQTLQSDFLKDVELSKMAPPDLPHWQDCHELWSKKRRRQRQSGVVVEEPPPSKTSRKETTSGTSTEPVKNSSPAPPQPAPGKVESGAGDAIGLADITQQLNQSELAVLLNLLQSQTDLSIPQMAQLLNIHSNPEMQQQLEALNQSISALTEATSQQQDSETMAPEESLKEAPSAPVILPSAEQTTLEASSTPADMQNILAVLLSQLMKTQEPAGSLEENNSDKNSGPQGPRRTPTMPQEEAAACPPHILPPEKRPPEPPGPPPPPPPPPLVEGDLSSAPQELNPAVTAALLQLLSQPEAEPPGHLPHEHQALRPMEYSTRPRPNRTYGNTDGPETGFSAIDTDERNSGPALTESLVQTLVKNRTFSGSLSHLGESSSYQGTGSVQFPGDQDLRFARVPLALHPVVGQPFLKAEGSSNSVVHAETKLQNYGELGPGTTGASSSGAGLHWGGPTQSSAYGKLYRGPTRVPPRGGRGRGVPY

In the case of `O=C(COc1cccc2c1C(=O)N(C1CCC(=O)NC1=O)C2=O)NCCCCCN1CCN(c2ccc(C(=O)N3CCC[C@@H](Nc4ncc(Cl)c(-c5c[nH]c6ccccc56)n4)C3)cc2)CC1` (some centres not stated), in data set [1], the Activity came to 80%. For `Cc1ncsc1-c1ccc([C@H](C)NC(=O)[C@@H]2C[C@@H](O)CN2C(=O)[C@@H](NC(=O)CCOCCOCCOCCN2CCC[C@@H](Nc3ncc(Cl)c(Nc4ccccc4S(=O)(=O)C(C)C)n3)C2)C(C)(C)C)cc1`, the Activity in data set [1] was determined as 90%. With `O=C(COc1cccc2c1C(=O)N(C1CCC(=O)NC1=O)C2=O)NCCCCN1CCC[C@@H](Nc2ncc(Cl)c(-c3c[nH]c4ccccc34)n2)C1` (some centres not stated), the outcome in data set [2] was inactive.

With `O=C(COc1cccc2c1C(=O)N(C1CCC(=O)NC1=O)C2=O)NCCCCCCCN1CCC[C@@H](Nc2ncc(Cl)c(-c3c[nH]c4ccccc34)n2)C1` (some centres not stated), the Activity in data set [1] came out at 90%. Consider `O=C(COc1cccc2c1C(=O)N(C1CCC(=O)NC1=O)C2=O)NCCCCCN1CCC[C@@H](Nc2ncc(Cl)c(-c3c[nH]c4ccccc34)n2)C1` (some centres not stated), for which, in data set [2], the result was inactive. The same measure, in the same setting: then `O=C(COc1cccc2c1C(=O)N(C1CCC(=O)NC1=O)C2=O)NCCOCCOCCN1CCC[C@@H](Nc2ncc(Cl)c(-c3c[nH]c4ccccc34)n2)C1` (some centres not stated), with “inactive”. Turning to `O=C(COc1cccc2c1C(=O)N(C1CCC(=O)NC1=O)C2=O)NCCCCCC(=O)N1CCC[C@@H](Nc2ncc(Cl)c(-c3c[nH]c4ccccc34)n2)C1` (some centres not stated), in data set [2], the result was inactive.

`O=C(COc1cccc2c1C(=O)N(C1CCC(=O)NC1=O)C2=O)NCCCN1CCN(c2ccc(C(=O)N3CCC[C@@H](Nc4ncc(Cl)c(-c5c[nH]c6ccccc56)n4)C3)cc2)CC1` (some centres not stated): the Activity in data set [1] turned out to be 60%. For `O=C(COc1cccc2c1C(=O)N(C1CCC(=O)NC1=O)C2=O)NCCCCCCN1CCC(C(=O)N2CCC[C@@H](Nc3ncc(Cl)c(-c4c[nH]c5ccccc45)n3)C2)CC1` (some centres not stated), in data set [1], the Activity was found to be 80%.

For `Cc1ncsc1-c1ccc([C@H](C)NC(=O)[C@@H]2C[C@@H](O)CN2C(=O)[C@@H](NC(=O)CCCCCCCCCCN2CCC[C@@H](Nc3ncc(Cl)c(Nc4ccccc4S(=O)(=O)C(C)C)n3)C2)C(C)(C)C)cc1`, the Cmax in data set [3] was 4570 ng/mL and 4.49 µM. The compound also had an AUC(0-inf) in data set [4] of 6140 ng·h/mL. In data set [1], the Activity was determined as 90%. The half-life in data set [5] is 2.21 h. Besides, the “%AUCextra” value in data set [6] is 6.27%. The AUC(0-t) at 8 h in data set [7] is 5720 ng·h/mL and 5.61 µM·h. In the case of `O=C(COc1cccc2c1C(=O)N(C1CCC(=O)NC1=O)C2=O)NCCCCCCCN1CCN(c2cccc(C(=O)N3CCC[C@@H](Nc4ncc(Cl)c(-c5c[nH]c6ccccc56)n4)C3)c2)CC1` (some centres not stated), the result in data set [2] was inactive.

On to `O=C(COc1cccc2c1C(=O)N(C1CCC(=O)NC1=O)C2=O)NCCCCCCN1CCC[C@@H](Nc2ncc(Cl)c(-c3c[nH]c4ccccc34)n2)C1` (some centres not stated), for which the Activity in data set [1] is 80%. On to `O=C(COc1cccc2c1C(=O)N(C1CCC(=O)NC1=O)C2=O)NCCOCCOCCC(=O)N1CCC[C@@H](Nc2ncc(Cl)c(-c3c[nH]c4ccccc34)n2)C1` (some centres not stated), for which the outcome in data set [2] was inactive. Consider `CC(C)S(=O)(=O)c1ccccc1Nc1nc(N[C@@H]2CCCN(CCCCCCCNC(=O)COc3cccc4c3C(=O)N(C3CCC(=O)NC3=O)C4=O)C2)ncc1Cl` (some centres not stated), for which the Activity in data set [1] was found to be 90%.

On to `O=C(COc1cccc2c1C(=O)N(C1CCC(=O)NC1=O)C2=O)NCCCCCCCN1CCC(C(=O)N2CCC[C@@H](Nc3ncc(Cl)c(-c4c[nH]c5ccccc45)n3)C2)CC1` (some centres not stated), for which, in data set [1], the Activity was determined as 80%. For the compound `Cc1ncsc1-c1ccc([C@H](C)NC(=O)[C@H]2C[C@H](O)CN2C(=O)[C@@H](NC(=O)CCCCCCCCCCN2CCC[C@@H](Nc3ncc(Cl)c(Nc4ccccc4S(=O)(=O)C(C)C)n3)C2)C(C)(C)C)cc1`, the outcome in data set [2] was inactive. Consider `O=C(COc1cccc2c1C(=O)N(C1CCC(=O)NC1=O)C2=O)NCCOCCOCCOCCN1CCC[C@@H](Nc2ncc(Cl)c(-c3c[nH]c4ccccc34)n2)C1` (some centres not stated), for which, in data set [1], the Activity was determined as 80%.
